# Results reported in US7169789B2 (Kirin Beer Kabushiki Kaisha, priority 1999, dated 2007).
# Where two headings read alike, the source gives them in different places.
# Experiments:
# [1] = tested on: activation of MAPK within vascular endothelial cells induced by VEGF stimulation; assay: Inhibitory activity against activation of MAPK within vascular endothelial cells induced by VEGF stimulation; assay type: cell-based; conditions: human funicular venous vascular endothelial cells, VEGF 50 ng/ml, phosphorylated MAPK by immunoblotting
# Description: Measurement of Inhibitory Activity Against Activation of MAPK Within Vascular Endothelial Cells Induced by VEGF Stimulation
# Human funicular venous vascular endothelial cells (purchased from Chronetics) were cultured in an EGM-2 medium (purchased from Chronetics) within an incubator containing 5% carbon dioxide until 50 to 70% confluent, and the culture was inoculated into wells, containing the same medium, in a 96-well flat-bottom plate in an amount of 1.5×10^5 per well. After cultivation at 37° C. overnight, the medium was replaced by an EBM-2 medium containing 0.5% fetal calf serum (purchased from Chronetics), followed by cultivation for 24 hr. A solution of the test compound in dimethyl sulfoxide was added to each well, and the cultivation was continued at 37° C. for additional one hr. A human recombinant vascular endothelial growth factor (hereinafter abbreviated to “VEGF”) was added to a final concentration of 50 ng/ml, and the stimulation of cells was carried out at 37° C. for 8 min. The medium was removed, the cells were washed with phosphate buffered saline (pH 7.4), and 10 μl of a solubilization buffer (Tris buffered saline (pH 7.4) containing 1% Triton X100, 2 mM sodium orthovanadylate, and 1 mM disodium ethylenediaminetetraacetate) was then added thereto. The mixture was shaken at 4° C. for one hr to solubilize the cells. An equal amount of Tris buffered saline containing 1% sodium laurylsulfate was added to and thoroughly mixed with the solution. This solution (2 μl) was adsorbed on a PVDF filter by dot blotting, and this filter was subjected to immunoblotting with anti-tyrosine phosphorylated MAPK antibody (purchased from Daiichi Pure Chemicals).
# The level of phosphorylated MAPK was quantitatively determined with a densitometer, and the percentage phosphorylated MAPK in the presence of the test compound was determined by presuming the level of phosphorylated MAPK with the addition of VEGF in the absence of the test compound to be 100% and the level of phosphorylated MAPK in the absence of the test compound and VEGF to be 0%. The test compound concentration (IC50) necessary for inhibiting 50% of the activation of MAPK was calculated based on the percentage of phosphorylated MAPK.
# [2] = target: T1, human KDR (Homo sapiens, UniProt P35968); assay: Inhibitory activity against KDR phosphorylation by ELISA; assay type: cell-based; conditions: NIH 3T3 cells transfected with human KDR, VEGF 100 ng/ml
# T1 construct: expressed in transfected cells; host or cells: NIH 3T3 cells (Sawano A et al., Cell Growth & Differentiation 7, 213-221 (1996))
# [3] = tested on: Human glioma cells GL07; assay: Antitumor effect on human glioma cells (GL07) transplanted into nude mice; assay type: in vivo; conditions: 20 mg/kg once a day for 9 days; for inhibition in vivo at 20 mg/kg: Mus musculus, Glioma cell, 216 h, read-out: TGIR, % (tumor growth inhibition rate)
# Procedure, shortened: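 GL07 xenografts in nude mice, grouped (n=4) at ~100 mm^3 tumor volume. Test compound 20 mg/kg p.o. or i.p. once daily for 9 days; vehicle controls. TGIR = (1−Tx/Cx)×100 from tumor volumes normalized to day-of-start volume = 1.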
# T1 sequence (P35968 20-1356): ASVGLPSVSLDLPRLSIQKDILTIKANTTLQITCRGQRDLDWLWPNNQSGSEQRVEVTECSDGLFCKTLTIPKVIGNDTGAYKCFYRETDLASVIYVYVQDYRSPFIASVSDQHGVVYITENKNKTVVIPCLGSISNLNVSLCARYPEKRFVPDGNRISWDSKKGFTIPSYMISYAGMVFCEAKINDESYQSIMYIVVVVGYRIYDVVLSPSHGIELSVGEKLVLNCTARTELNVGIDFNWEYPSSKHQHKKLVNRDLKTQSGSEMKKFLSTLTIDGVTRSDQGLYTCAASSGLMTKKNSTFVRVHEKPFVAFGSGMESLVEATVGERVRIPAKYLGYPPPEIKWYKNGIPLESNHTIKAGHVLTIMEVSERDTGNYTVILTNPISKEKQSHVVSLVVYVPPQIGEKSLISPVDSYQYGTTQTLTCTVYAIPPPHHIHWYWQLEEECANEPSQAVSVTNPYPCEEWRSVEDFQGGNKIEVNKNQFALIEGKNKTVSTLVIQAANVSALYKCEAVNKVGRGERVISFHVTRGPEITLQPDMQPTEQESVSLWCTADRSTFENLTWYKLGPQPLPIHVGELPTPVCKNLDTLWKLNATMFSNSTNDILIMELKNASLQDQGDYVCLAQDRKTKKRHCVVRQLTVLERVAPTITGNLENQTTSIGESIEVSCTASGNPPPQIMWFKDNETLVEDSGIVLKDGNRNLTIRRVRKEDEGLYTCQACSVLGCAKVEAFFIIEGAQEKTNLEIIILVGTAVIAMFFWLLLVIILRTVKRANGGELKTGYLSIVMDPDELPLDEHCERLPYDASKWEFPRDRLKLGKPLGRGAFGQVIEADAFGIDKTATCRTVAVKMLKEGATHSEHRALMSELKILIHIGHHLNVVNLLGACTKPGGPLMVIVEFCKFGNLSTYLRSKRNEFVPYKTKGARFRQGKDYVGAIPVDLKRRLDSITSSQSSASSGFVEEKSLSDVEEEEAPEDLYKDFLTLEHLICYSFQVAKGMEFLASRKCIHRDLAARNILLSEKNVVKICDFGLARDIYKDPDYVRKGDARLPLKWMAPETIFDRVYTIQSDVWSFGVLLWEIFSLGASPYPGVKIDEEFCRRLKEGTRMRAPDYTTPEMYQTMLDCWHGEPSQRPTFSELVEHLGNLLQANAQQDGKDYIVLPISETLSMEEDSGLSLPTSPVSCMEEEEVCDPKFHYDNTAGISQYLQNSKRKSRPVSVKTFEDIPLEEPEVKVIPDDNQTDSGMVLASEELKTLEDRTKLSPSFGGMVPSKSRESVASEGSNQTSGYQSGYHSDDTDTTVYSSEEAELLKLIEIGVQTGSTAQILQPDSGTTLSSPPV
SMILES,IC50 ([1]; Endothelial cell),IC50 [2],"inhibition in vivo at 20 mg/kg ([3]; GL07, oral)",further results
"COc1cc2nccc(Oc3ccc(NC(=O)NCc4ccc(F)cc4F)c(F)c3)c2cc1OC [Example 1, N-(2,4-Difluorobenzyl)-N′-{4-[(6,7-dimethoxy-4-quinolyl)oxy]-2-fluorophenyl}urea]",1.8 nM,–,–,–
"COc1cc2nccc(Oc3ccc(NC(=O)Nc4cccc5ccccc45)c(Cl)c3)c2cc1OC [Example 23, N-{2-Chloro-4-[(6,7-dimethoxy-4-guinolyl)oxy]phenyl}-N′-(1-naphthyl)urea]",–,–,–,IC50 [1]: 5.4 nM
"COc1cc2c(Oc3ccc(NC(=O)Nc4ccc(F)cc4F)c(F)c3)ccnc2cc1OCCN1CCOCC1 [Example 50, N-(2,4-Difluorophenyl)-N′-(2-fluoro-4-{[6-methoxy-7-(2-morpholinoethoxy)-4-quinolyl]oxy}phenyl)-urea]",0.5 nM,–,59%,–
"C#CCNC(=O)Nc1ccc(Oc2ccnc3cc(OC)c(OC)cc23)cc1F [Example 7, N-{4-[(6,7-Dimethoxy-4-quinolyl)oxy]-2-fluorophenyl}-N′-(2-propynyl)urea]",5.2 nM,–,–,–
"COCCOc1cc2nccc(Oc3ccc(NC(=O)Nc4ccc(F)cc4F)c(Cl)c3)c2cc1OC [Example 54, N-(2-Chloro-4-{[6-methoxy-7-(2-methoxyethoxy)-4-quinolyl]oxy}phenyl)-N′-(2,4-difluorophenyl)urea]",0.5 nM,–,59%,–
"COc1cc2nccc(Oc3ccc(NC(=O)Nc4ccccc4C)c(Cl)c3)c2cc1OC [Example 19, N-{2-Chloro-4-[(6,7-dimethoxy-4-quinolyl)oxy]phenyl}-N′-(2-methylphenyl)urea]",0.6 nM,–,–,–
"COc1cc2nccc(Oc3ccc(NC(=O)NCC(C)C)c(F)c3)c2cc1OC [Example 11, N-{4-[(6,7-Dimethoxy-4-quinolyl)oxy]-2-fluorophenyl}-N′-isobutylurea]",15 nM,–,–,–
"C=CCNC(=O)Nc1ccc(Oc2ccnc3cc(OC)c(OC)cc23)cc1F [Example 4, N-Allyl-N′-{4-[(6,7-dimethoxy-4-quinolyl)-oxy]-2-fluorophenyl}urea]",2.1 nM,–,61%,–
"CCNC(=O)Nc1ccc(Oc2ccnc3cc(OC)c(OC)cc23)cc1F [Example 8, N-{4-[(6,7-Dimethoxy-4-guinolyl)oxy]-2-fluorophenyl}-N′-ethylurea]",–,–,–,IC50 [1]: 11 nM
"CCCCNC(=O)Nc1ccc(Oc2ccnc3cc(OC)c(OC)cc23)cc1F [Example 9, N-Butyl N′-{4-[(6,7-dimethoxy-4-quinolyl)oxy]-2-fluorophenyl}urea]",5.1 nM,–,–,"inhibition in vivo at 20 mg/kg ([3]; ip, GL07, intraperitoneal): 59%"
"CCC(C)NC(=O)Nc1ccc(Oc2ccnc3cc(OC)c(OC)cc23)cc1F (stereo not shown) [Example 10, N-(sec-Butyl)-N′-{4-[(6,7-dimethoxy-4-quinolyl)oxy]-2-fluorophenyl}urea]",7.8 nM,–,–,–
"CCCNC(=O)Nc1ccc(Oc2ccnc3cc(OC)c(OC)cc23)cc1F [Example 5, N-{4-[(6,7-Dimethoxy-4-guinolyl)oxy]-2-fluorophenyl}-N′-propylurea]",–,–,–,"IC50 [1]: 2.9 nM; TGIR, % (tumor growth inhibition rate) ([3]; GL07, oral): 59%"

# More lines, main results first:
IC50 ([1]; Endothelial cell),IC50 [2],SMILES,"inhibition in vivo at 20 mg/kg ([3]; GL07, oral)",further results
42 nM,57 nM,"CCC(C)NC(=O)Nc1ccc(Oc2ncnc3cc(OC)c(OC)cc23)cc1F (stereo not shown) [Example 90, N-(sec-Butyl)-N′-{4-[(6,7-dimethoxy-4-quinazolinyl)oxy]-2-fluorophenyl}urea]",–,–
2.7 nM,3.8 nM,"COc1cc2ncnc(Oc3ccc(NC(=O)Nc4ccccc4C)c(F)c3)c2cc1OC [Example 95, N-{4-[(6,7-Dimethoxy-4-quinazolinyl)oxy]-2-fluorophenyl}-N′-(2-methylphenyl)urea]",–,–
8 nM,3.5 nM,"CCNC(=O)Nc1ccc(Oc2ncnc3cc(OC)c(OC)cc23)cc1Cl [Example 76, N-{2-chloro-4-[(6,7-dimethoxy-4-quinazolinyl)-oxy]phenyl}-N′-ethylurea]",–,–
< 1 nM,1.5 nM,"COc1ccccc1NC(=O)Nc1ccc(Oc2ncnc3cc(OC)c(OC)cc23)cc1C [Example 106, N-{4-[(6,7-Dimethoxy-4-quinazolinyl)oxy]-2-methylphenyl}-N′-(2-methoxyphenyl)urea]",–,–
46 nM,63 nM,"C#CCNC(=O)Nc1ccc(Oc2ncnc3cc(OC)c(OC)cc23)cc1F [Example 92, N-{4-[(6,7-Dimethoxy-4-quinazolinyl)oxy]-2-fluorophenyl}-N′-(2-propynyl)urea]",–,–
5.1 nM,–,"COCCOc1cc2nccc(Oc3ccc(NC(=O)Nc4ccc(F)cc4F)c(C)c3C)c2cc1OC [Example 56, N-(2,4-Difluorophenyl)-N′-(4-{[6-methoxy-7-(2-methoxyethoxy)-4-quinolyl]oxy}-2,3-dimethylphenyl)-urea]",–,–
6.5 nM,–,"COCCOc1cc2nccc(Oc3ccc(NC(=O)Nc4ccccc4OC)c(C)c3C)c2cc1OC [Example 57, N-(4-{[6-Methoxy-7-(2-methoxyethoxy)-4-quinolyl]oxy}-2,3-dimethylphenyl)-N′-(2-methoxyphenyl)urea]",–,–
–,1.9 nM,"CCCNC(=O)Nc1ccc(Oc2ncnc3cc(OCCCCCN4CCOCC4)c(OC)cc23)cc1Cl [Example 124, N-[2-Chloro-4-({6-methoxy-7-[(5-morpholinopentyl)oxy]-4-quinazolinyl}oxy)phenyl]-N′-propylurea]",27%,–
–,6.3 nM,"COc1cc2c(Oc3ccc(NC(=O)Nc4ccc(F)cc4F)c(Cl)c3)ccnc2cc1OCc1ccncc1 [Example 186, N-(2-chloro-4-{[6-methoxy-7-(4-pyridylmethoxy)-4-quinolyl]oxy}phenyl)-N′-(2,4-difluorophenyl)urea]",47%,–
–,> 1000 nM,"CCCN(CC)C(=O)Nc1ccc(Oc2ncnc3cc(OC)c(OC)cc23)cc1Cl [Example 112, N′-{2-Chloro-4-[(6,7-dimethoxy-4-quinazolinyl)oxy]phenyl}-N-ethyl-N-propylurea]",81%,–
–,> 1000 nM,"COc1cc2c(Oc3ccc(NC(=O)N(C)C)c(Cl)c3)ncnc2cc1OCCCN(C)CCO [Example 183, N′-{2-Chloro-4-[(7-{3-[(2-hydroxyethyl)-(methyl)amino]propoxy}-6-methoxy-4-quinazolinyl)oxy]-phenyl}-N,N-dimethylurea]",22%,–
–,> 1000 nM,"CCN(CC)C(=O)Nc1ccc(Oc2ncnc3cc(OCCn4ccnn4)c(OC)cc23)cc1Cl [Example 131, N′-[2-Chloro-4-({6-methoxy-7-[2-(1H-1,2,3-triazol-1-yl)ethoxy]-4-quinazolinyl}oxy)phenyl]-N,N-diethylurea]",31%,–
–,> 1000 nM,"CCN(CC)C(=O)Nc1ccc(Oc2ncnc3cc(OC)c(OC)cc23)cc1Cl [Example 116, N′-{2-Chloro-4-[(6,7-dimethoxy-4-quinazolinyl)oxy]phenyl}-N,N-diethylurea]",83%,–
–,3.6 nM,"CCCNC(=O)Nc1ccc(Oc2ncnc3cc(OCCCN4CCOCC4)c(OC)cc23)cc1Cl [Example 119, N-(2-chloro-4-{[6-methoxy-7-(3-morpholinopropoxy)-4-quinazolinyl]oxy}phenyl)-N′-propylurea]",40%,–
–,3.7 nM,"COc1cc2c(Oc3ccc(NC(=O)Nc4ccc(F)cc4F)c(Cl)c3)ccnc2cc1OCc1cccnc1 [Example 169, N-(2-chloro-4-{[6-methoxy-7-(3-pyridylmethoxy)-4-quinolyl]oxy}phenyl)-N′-(2,4-difluorophenyl)urea]",55%,–
–,> 1000 nM,"CCCNC(=O)N(C(C)=O)c1ccc(Oc2ncnc3cc(OC)c(OC)cc23)cc1Cl [Example 110, N-Acetyl-N-{2-chloro-4-[(6,7-dimethoxy-4-quinazolinyl)oxy]phenyl}-N′-propylurea]",26%,–
–,15 nM,"CCCNC(=O)Nc1ccc(Oc2ccnc3cc(OCCN4CCN(C)CC4)c(OC)cc23)cc1Cl [Example 148, N-[2-chloro-4-(6-methoxy-7-{[2-(4-methylpiperazino)ethoxy]-4-quinolyl}oxy)phenyl]-N′-propylurea]",54%,–
